“And” between values parts separate entries of the source, which are not always exact repeats. Equal values may be shown once.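 Grown in 96-well plates, cells were treated for 48 hours with each compound at five concentrations. Insufficient inhibition: endpoint recorded as highest concentration tested. GI50 = concentration required for 50% inhibition of growth. At the TGI there is no net growth.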
How the values were obtained:
Assay in all cases: DTP human tumour cell line panel, 48 h
DU-145 prostate = tested on: DU-145 prostate
MDA-MB-231 breast = tested on: MDA-MB-231 breast
T-47D breast = tested on: T-47D breast
NCI/ADR-RES ovarian = tested on: NCI/ADR-RES ovarian

Compound	GI50 (DU-145 prostate) [µM]	TGI (DU-145 prostate)	GI50 (MDA-MB-231 breast)	TGI (MDA-MB-231 breast)	GI50 (T-47D breast) [µM]	TGI (T-47D breast)	GI50 (NCI/ADR-RES ovarian)	TGI (NCI/ADR-RES ovarian)
CCC(c1cccc(O)c1)C(CC)c1cccc(O)c1 (configuration not stated)	11	29.9 µM	6.21 µM	19.6 µM	3.54	17.1 µM	3.53 µM	14.1 µM
Oc1ccccc1-c1nc2c3ccccc3c3ccccc3c2[nH]1	13.6	26.5 µM	1.96 µM	4.44 µM	1.89	12.8 µM	8.43 µM	25.6 µM
Nc1ccc(S(=O)(=O)NCc2nccs2)cc1	–	95.5 µM	–	68.2 µM	–	71.8 µM	–	62.7 µM
c1cc(CNC2C3CCC(C3)C2c2c[nH]c3ccccc23)cc(CNC2C3CCC(C3)C2c2c[nH]c3ccccc23)c1 (configuration not stated)	–	2.3 µM	–	2.81 µM	–	–	1.21 µM and 0.607 µM	2.6 µM and 1.99 µM
CNC(=S)N/N=C/c1ccc([N+](=O)[O-])s1	–	> 10 µM	–	> 10 µM	–	> 10 µM	–	> 10 µM
Cc1c2ccc(N(C)c3ccnc(Nc4cccc(S(N)(=O)=O)c4)n3)cc2nn1C	9.06	> 25 µM	8.47 µM	> 25 µM	5.27	21.8 µM	> 19.7 µM	> 25 µM
CC(C)Oc1cc(O)c2c(c1)OCC=C2CCC(=O)O	–	> 100 µM	–	> 100 µM	–	> 100 µM	–	> 100 µM
CCN(CC)CCNc1n[n+]([O-])c2ccccc2[n+]1[O-]	–	48.4 µM and 47.9 µM	6.08 µM and 2.83 µM	27.3 µM and 20.7 µM	–	36.4 µM and 27.5 µM	–	85.6 µM and > 100 µM
COC(=O)C1=C(C(=O)OC)SC(=C(Cl)C(=S)Sc2ccccc2N)S1	4.14	43.7 µM	16.6 µM	42.9 µM	39.6	> 100 µM	25.5 µM	62.1 µM
CCN(CC)CCCC(C)Nc1c2ccc(C)cc2nc2ccc(OC)cc12 (configuration not stated)	1.65	8.83 µM	1.61 µM	5.41 µM	11.8	33.9 µM	4.03 µM	22.7 µM
CCOc1c(Cl)cc(CNC(C)C(O)c2ccccc2)cc1OC (configuration not stated)	37.6	> 100 µM	15.6 µM	54.7 µM	16.5	46.5 µM	20.2 µM	59.1 µM
C[C@]12CC[C@@H]3c4ccc(O)cc4C(O)C[C@H]3[C@@H]1CCC2=O (some centres not stated)	> 100	> 100 µM	> 100 µM	> 100 µM	> 100	> 100 µM	> 100 µM	> 100 µM
Cc1cc(-c2nnc3n2CCCCC3)c(C)n1-c1ccc(Cl)c(Cl)c1	27.6	> 100 µM	15.2 µM	33.5 µM	6.03	30.8 µM	11.9 µM	47.8 µM
Cc1ccc(NC(=O)Cn2c(Br)nc3c2c(=O)n(C)c(=O)n3C)cc1	4.64	16.4 µM	2.44 µM	6.42 µM	3.05	14 µM	9.75 µM	29.3 µM
FCc1ncc(-c2ccc(C(F)(F)F)cc2)c(NC2CCCCCC2)n1	> 10	> 10 µM	> 10 µM	> 10 µM	> 10	> 10 µM	> 10 µM	> 10 µM
CCCCCCN(CCCCCC)CC(O)c1ccc2c3c(cccc13)CC2 (configuration not stated)	11.6	24.7 µM	6.86 µM	21.3 µM	3.28	16.6 µM	10.6 µM	26.2 µM
O=C1Nc2cccc3cc(NCC(O)CCl)cc1c23 (configuration not stated)	–	> 100 µM	–	> 100 µM	–	> 100 µM	–	> 100 µM
COC(=O)CCC1=C(C)/C(=C/c2[nH]c(-c3ccc[nH]3)cc2OC)N=C1C	2.17	15.1 µM	0.223 µM	1.35 µM	0.378	1.86 µM	0.434 µM	12.3 µM
COc1cc2nc(-c3ccc(C(F)(F)F)cc3)cc(OCCCN3CCCCC3)c2cc1OC	1.84	16.5 µM	0.536 µM	4.04 µM	0.454	22.4 µM	0.522 µM	14.8 µM
COC(=O)CCCCCN=Cc1c(O)c(O)c(C(C)C)c2cc(C)c(-c3c(C)cc4c(C(C)C)c(O)c(O)c(C=NCCCCCC(=O)OC)c4c3O)c(O)c12	1.78	21.1 µM	1.36 µM	> 32.5 µM	1.25	29.4 µM	9.04 µM	> 32.5 µM
